# In US4495201A, “Pharmaceutical composition and method for treating heart diseases therewith” (Institut Organicheskoi Khimii Imeni N.D. Zelinskogo, priority 1982, dated 1985):
# Experiments:
# [1] = tested on: zone of necrosis, perinecrotic zone and myocardium regions spaced from the place of infarction; experiment: Experimental myocardial infarction in rabbits: histological, histochemical and electron-microscopic study; format: in vivo, rabbits of the Chinchilla variety; conditions: for effect on reparative processes in the zone of necrosis / organization of the post-infarction scar: comparison of preparations; for activity of lysis-ensuring enzymes: zone of necrosis and perinecrotic areas
# Description: The experiment on animals has been performed on 419 rabbits of the Chinchilla variety with experimentally-induced myocardial infarction produced by ligation of the front descending branch of the coronary artery.
# The effect of the composition according to the present invention on the progress of the experimental myocardial infarction has been studied in comparison with the effect produced by inosine, potassium orotate, vitamin B12 with folic acid and retabolyl.
# Histological, histochemical and electron-microscopic methods of investigation have been employed to study the zone of necrosis, perinecrotic zone and myocardium regions spaced from the place of infarction by 1, 3 and 7 days after operation. Furthermore, to determine the contractile ability of myocardium, measurements of intracavitary pressure have been performed. Dynamic electrocardiographic observation over the animals was carried out 7 times during the first day (prior to operation, 15, 30 minutes, 1, 2, 3 and 4 hours after the administration) and during the following days two times a day (before and one hour after the administration).
# The study of the total cross-sectional patterns of a rabbit's heart has made it possible to precisely define these zones.
# The first group of rabbits has been intramuscularly injected with the composition according to the present invention in the dose of 1 mg/kg in a day.
# The second group of rabbits has been injected with inosine in a dose of 30 mg/kg intravenously daily once a day; for the first time 16 hours after the operation and for the last time 2 hours before slaughter (i.e. before the 7th day). The third group of rabbits has been given potassium orotate in a dose of 30 mg/kg in the same sequence as the previous preparation, i.e. up to the 7th day.
# The fourth group of animals has been administered vitamin B12 3γ/kg in combination with folic acid in the same sequence.
# The fifth group of rabbits has been administered an anabilic hormone of a prolonged action--retabolyl in a dose of 5 mg/kg of the bodyweight 1-2 times intramuscularly up to the 7th day.
# [2] = Solubility and stability; format: physicochemical
# [3] = tested on: left ventricle of the heart; experiment: Intracardiac hemodynamics (intracavitary pressure); format: in vivo, rabbits; conditions: versus the composition
# [4] = tested on: central hemodynamics; experiment: Central hemodynamics by radiocardiography in patients with myocardial infarction; format: in vivo; conditions: as compared to the control
# Description: (§1) The composition according to the present invention is administered to the patients intramuscularly in a dose of from 25 to 50 mg once every three days.
# On the 1th, 10th, 20th and 40th days of the disease the central hemodynamics was determined by the method of radiocardiography.
# [5] = tested on: insufficiency of blood circulation and post-infarctional aneurysm; experiment: Clinical outcome: insufficiency of blood circulation and post-infarction aneurysm; format: in vivo, patients; conditions: comparison of the composition and inosine
# Description: as §1
# A further dynamic electrocardiographic observation is effected during the first day of injection of the composition (prior to injection and 1 and 2 hours thereafter), then once per 3 and later on--per 5 days. On the 1th, 10th, 20th and 40th days of the disease the central hemodynamics was determined by the method of radiocardiography. On the 10th and 40th days of the illness the contractile capacity of myocardium is assessed by methods of electro- and X-ray kymography. The biochemical control over the effect of the preparation was effected by determination, in dynamics in blood serum, of the products of decomposition of DNA, proline, hydroxyproline, transaminases. There was also analyzed the dynamics of normalization of leukocytosis, ESR (erythrocyte sedimentation rate), disappearance of aneosinophilia. The careful clinical assessment of the effect of the composition was also performed.
compound,measurement,setting,value
"CCCCCCCCCC(=O)O[C@H]1CC[C@H]2[C@@H]3CCC4=CC(=O)CC[C@@H]4[C@H]3CC[C@]12C [retabolyl, nandrolone decanoate]",activity of lactatedehydrogenase in extra-infarction areas of myocardium,[1],slightly less pronounced effect
same,effect on reparative processes in the zone of necrosis / organization of the post-infarction scar,[1],less pronounced
"CC(C)=CCCC(C)=CCC(CCCN(C)C)C(=O)O (stereo not shown) [4',5,9-trimethyl-2-(4'-aza-pentyl)decadi-4,8-ene acid]","solubility in aqueous solutions of strong acids, alkalis, diluted solutions of salts",[2],well soluble
same,solubility in fats and vegetable oils,[2],well soluble
same,"solubility in organic solvents (ethanol, ether, acetone, gasoline, benzene)",[2],well soluble
same,solubility in water,[2],well soluble
same,stability of aqueous solutions,[2]; aqueous solutions,"transparent, stable and can be sterilized by conventional methods"
same,stability in storage,"[2]; not more than 25° C., advisable period two years",stable in storage
"O=C(O)c1cc(O)nc(O)n1 [potassium orotate, 2,6-dihydroxypyrimidine-4-carboxylic acid]",effect on formation of compensatory hyperfunction and hypertrophy of extrainfarction areas,[3],more marked effect
same,activity of lactatedehydrogenase in extra-infarction areas of myocardium,[1],slightly less pronounced effect
same,effect on reparative processes in the zone of necrosis / organization of the post-infarction scar,[1],still less pronounced effect
same,activity of reactions of pentose-phosphate shunt (glucoso-6-phosphatehydrogenase),[1]; perinecrotic areas of myocardium,slightly increasing activity
same,activity of lysis-ensuring enzymes,[1],slightly increasing activity
"O=c1[nH]cnc2c1ncn2[C@@H]1O[C@H](CO)[C@@H](O)[C@H]1O [inosine, hypoxanthine riboside]","regaining of hemodynamic characteristics (cardiac and systolic indices, beat work of the heart)",[4],more pronounced and earlier regaining
same,patients in whom effect on state of blood circulation is greatest,[5],most pronounced effect on the state of blood circulation in patients with a repeated myocardial infarction
same,effect on formation of compensatory hyperfunction and hypertrophy of extrainfarction areas,[3],more marked effect
same,cellular infiltration of the zone of necrosis,[1],enhanced cellular infiltration of the zone of infarction
same,effect on reparative processes in the zone of necrosis / organization of the post-infarction scar,[1],substantially less pronounced than the effect of the preparation according to the present invention
same,activity of lysis-ensuring enzymes,[1],increasing activity of lysis-ensuring enzymes is limited only to the zone of necrosis
